Results from patent US6896895B2, “Carotenoid esters, carotenoid-enriched feeds, and methods of pigmenting foods and foodstuffs” (DSM IP Assets B.V., priority 2000, dated 2005).

Test system: skin and shanks of broilers
Assay: Reflectance colorimetry and visual classification of skin and shanks of broilers
Format: in vivo, broiler chickens (Ross 308, Ross 508)
Design: key to Shanks Visual Classification / Skin Visual Classification: −; (+); +; ++ = good color; o = orange
Settings: for Shanks Chroma C*ab % of Controls / Shanks Color Hue h*ab % of Controls / Skin Chroma C*ab % of Controls / Skin Color Hue h*ab % of Controls / Shanks Chroma C*ab Value / Shanks Color Hue h*ab Value / Shanks Visual Classification / Skin Chroma C*ab Value / Skin Color Hue h*ab Value / Skin Visual Classification: dry carcasses; for chroma C*a*b* values in the skin and in the shanks / color hue h*a*b* in the skin and in the shanks / effectiveness in terms of concentration in the skin, and color intensity (chroma C*a*b*) in the skin and shanks: versus the control
In short: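 Ross broilers were fed a low-carotenoid basal diet (<2 mg xanthophylls/kg), then received pigment-supplemented diet for three weeks and were slaughtered on day 44. Back-skin colour (mean of three points) and shank colour (single reading) were measured by Minolta chromameter (D65, 0°) and reported as CIE L*a*b*, h* and C*, averaged over ten birds (5 male, 5 female).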

[1] = trial MC-11/99, 13.33 mg/kg feed

CC1=C(/C=C/C(C)=C/C=C/C(C)=C/C=C/C=C(C)/C=C/C=C(\C)C(=O)OC(C)C)C(C)(C)CCC1 [compound (17), isopropyl beta-apo-8′-carotenoate]
Shanks Chroma C*ab % of Controls (average over doses, Table 5): 115% | Shanks Color Hue h*ab % of Controls (average over doses, Table 5): 99% | Skin Chroma C*ab % of Controls (average over doses, Table 5): 113% | Skin Color Hue h*ab % of Controls (average over doses, Table 5): 102% | Shanks Chroma C*ab % of Controls [1]: 97% | Shanks Chroma C*ab Value [1]: 70 | Shanks Color Hue h*ab % of Controls [1]: 99% | Shanks Color Hue h*ab Value [1]: 84 | Shanks Visual Classification [1]: (+) | Skin Chroma C*ab % of Controls [1]: 116% | Skin Chroma C*ab Value [1]: 29 | Skin Color Hue h*ab % of Controls [1]: 105% | Skin Color Hue h*ab Value [1]: 77 | Skin Visual Classification [1]: (+) | Shanks Chroma C*ab % of Controls (trial MC-11/99, 20 mg/kg feed): 125% | Shanks Chroma C*ab Value (trial MC-11/99, 20 mg/kg feed): 59 | Shanks Color Hue h*ab % of Controls (trial MC-11/99, 20 mg/kg feed): 103% | Shanks Color Hue h*ab Value (trial MC-11/99, 20 mg/kg feed): 87 | Shanks Visual Classification (trial MC-11/99, 20 mg/kg feed): + | Skin Chroma C*ab % of Controls (trial MC-11/99, 20 mg/kg feed): 106% | Skin Chroma C*ab Value (trial MC-11/99, 20 mg/kg feed): 33 | Skin Color Hue h*ab % of Controls (trial MC-11/99, 20 mg/kg feed): 100% | Skin Color Hue h*ab Value (trial MC-11/99, 20 mg/kg feed): 78 | Skin Visual Classification (trial MC-11/99, 20 mg/kg feed): + | Shanks Chroma C*ab % of Controls (trial MC-11/99, 30 mg/kg feed): 108% | Shanks Chroma C*ab Value (trial MC-11/99, 30 mg/kg feed): 65 | Shanks Color Hue h*ab % of Controls (trial MC-11/99, 30 mg/kg feed): 97% | Shanks Color Hue h*ab Value (trial MC-11/99, 30 mg/kg feed): 83 | Shanks Visual Classification (trial MC-11/99, 30 mg/kg feed): + | Skin Chroma C*ab % of Controls (trial MC-11/99, 30 mg/kg feed): 119% | Skin Chroma C*ab Value (trial MC-11/99, 30 mg/kg feed): 40 | Skin Color Hue h*ab % of Controls (trial MC-11/99, 30 mg/kg feed): 102% | Skin Color Hue h*ab Value (trial MC-11/99, 30 mg/kg feed): 79 | Skin Visual Classification (trial MC-11/99, 30 mg/kg feed): + | Shanks Chroma C*ab % of Controls (trial MC-11/99, 45 mg/kg feed): 108% | Shanks Chroma C*ab Value (trial MC-11/99, 45 mg/kg feed): 71 | Shanks Color Hue h*ab % of Controls (trial MC-11/99, 45 mg/kg feed): 101% | Shanks Color Hue h*ab Value (trial MC-11/99, 45 mg/kg feed): 84 | Shanks Visual Classification (trial MC-11/99, 45 mg/kg feed): ++(o) | Skin Chroma C*ab % of Controls (trial MC-11/99, 45 mg/kg feed): 105% | Skin Chroma C*ab Value (trial MC-11/99, 45 mg/kg feed): 44 | Skin Color Hue h*ab % of Controls (trial MC-11/99, 45 mg/kg feed): 103% | Skin Color Hue h*ab Value (trial MC-11/99, 45 mg/kg feed): 79 | Skin Visual Classification (trial MC-11/99, 45 mg/kg feed): ++ | Shanks Chroma C*ab % of Controls (trial MC-24/98, 30 mg/kg feed): 137% | Shanks Chroma C*ab Value (trial MC-24/98, 30 mg/kg feed): 71 | Shanks Color Hue h*ab % of Controls (trial MC-24/98, 30 mg/kg feed): 93% | Shanks Color Hue h*ab Value (trial MC-24/98, 30 mg/kg feed): 80 | Shanks Visual Classification (trial MC-24/98, 30 mg/kg feed): + | Skin Chroma C*ab % of Controls (trial MC-24/98, 30 mg/kg feed): 119% | Skin Chroma C*ab Value (trial MC-24/98, 30 mg/kg feed): 39 | Skin Color Hue h*ab % of Controls (trial MC-24/98, 30 mg/kg feed): 102% | Skin Color Hue h*ab Value (trial MC-24/98, 30 mg/kg feed): 82 | Skin Visual Classification (trial MC-24/98, 30 mg/kg feed): + | chroma C*a*b* values in the skin and in the shanks: substantially enhanced | color hue h*a*b* in the skin and in the shanks: not significantly changed | effectiveness in terms of concentration in the skin, and color intensity (chroma C*a*b*) in the skin and shanks: significantly more effective

CC(C=CC=C(C)C=CC1=C(C)CCCC1(C)C)=CC=CC=C(C)C=CC=C(C)C(=O)OC(C)(C)C [compound (18), tert. butyl beta-apo-8′-carotenoate]
Shanks Chroma C*ab % of Controls (average over doses, Table 5): 113% | Shanks Color Hue h*ab % of Controls (average over doses, Table 5): 100% | Skin Chroma C*ab % of Controls (average over doses, Table 5): 115% | Skin Color Hue h*ab % of Controls (average over doses, Table 5): 105% | Shanks Chroma C*ab % of Controls (trial MC-24/99, 20 mg/kg feed): 114% | Shanks Chroma C*ab Value (trial MC-24/99, 20 mg/kg feed): 63 | Shanks Color Hue h*ab % of Controls (trial MC-24/99, 20 mg/kg feed): 100% | Shanks Color Hue h*ab Value (trial MC-24/99, 20 mg/kg feed): 84 | Shanks Visual Classification (trial MC-24/99, 20 mg/kg feed): + | Skin Chroma C*ab % of Controls (trial MC-24/99, 20 mg/kg feed): 116% | Skin Chroma C*ab Value (trial MC-24/99, 20 mg/kg feed): 38 | Skin Color Hue h*ab % of Controls (trial MC-24/99, 20 mg/kg feed): 107% | Skin Color Hue h*ab Value (trial MC-24/99, 20 mg/kg feed): 81 | Skin Visual Classification (trial MC-24/99, 20 mg/kg feed): + | Shanks Chroma C*ab % of Controls (trial MC-24/99, 30 mg/kg feed): 111% | Shanks Chroma C*ab Value (trial MC-24/99, 30 mg/kg feed): 70 | Shanks Color Hue h*ab % of Controls (trial MC-24/99, 30 mg/kg feed): 99% | Shanks Color Hue h*ab Value (trial MC-24/99, 30 mg/kg feed): 82 | Shanks Visual Classification (trial MC-24/99, 30 mg/kg feed): ++ | Skin Chroma C*ab % of Controls (trial MC-24/99, 30 mg/kg feed): 113% | Skin Chroma C*ab Value (trial MC-24/99, 30 mg/kg feed): 41 | Skin Color Hue h*ab % of Controls (trial MC-24/99, 30 mg/kg feed): 102% | Skin Color Hue h*ab Value (trial MC-24/99, 30 mg/kg feed): 80 | Skin Visual Classification (trial MC-24/99, 30 mg/kg feed): ++ | chroma C*a*b* values in the skin and in the shanks: substantially enhanced | color hue h*a*b* in the skin and in the shanks: not significantly changed | effectiveness in terms of concentration in the skin, and color intensity (chroma C*a*b*) in the skin and shanks: significantly more effective

CCCC(C)OC(=O)C(C)=CC=CC(C)=CC=CC=C(C)C=CC=C(C)C=CC1=C(C)CCCC1(C)C (stereo not drawn) [compound (19), 2-pentyl beta-apo-8′-carotenoate]
Shanks Chroma C*ab % of Controls (average over doses, Table 5): 105% | Shanks Color Hue h*ab % of Controls (average over doses, Table 5): 98% | Skin Chroma C*ab % of Controls (average over doses, Table 5): 106% | Skin Color Hue h*ab % of Controls (average over doses, Table 5): 97% | Shanks Chroma C*ab % of Controls (trial MC-24/99, 20 mg/kg feed): 108% | Shanks Chroma C*ab Value (trial MC-24/99, 20 mg/kg feed): 60 | Shanks Color Hue h*ab % of Controls (trial MC-24/99, 20 mg/kg feed): 98% | Shanks Color Hue h*ab Value (trial MC-24/99, 20 mg/kg feed): 82 | Shanks Visual Classification (trial MC-24/99, 20 mg/kg feed): + | Skin Chroma C*ab % of Controls (trial MC-24/99, 20 mg/kg feed): 106% | Skin Chroma C*ab Value (trial MC-24/99, 20 mg/kg feed): 34 | Skin Color Hue h*ab % of Controls (trial MC-24/99, 20 mg/kg feed): 96% | Skin Color Hue h*ab Value (trial MC-24/99, 20 mg/kg feed): 73 | Skin Visual Classification (trial MC-24/99, 20 mg/kg feed): + | Shanks Chroma C*ab % of Controls (trial MC-24/99, 30 mg/kg feed): 102% | Shanks Chroma C*ab Value (trial MC-24/99, 30 mg/kg feed): 65 | Shanks Color Hue h*ab % of Controls (trial MC-24/99, 30 mg/kg feed): 98% | Shanks Color Hue h*ab Value (trial MC-24/99, 30 mg/kg feed): 82 | Shanks Visual Classification (trial MC-24/99, 30 mg/kg feed): ++ | Skin Chroma C*ab % of Controls (trial MC-24/99, 30 mg/kg feed): 105% | Skin Chroma C*ab Value (trial MC-24/99, 30 mg/kg feed): 38 | Skin Color Hue h*ab % of Controls (trial MC-24/99, 30 mg/kg feed): 97% | Skin Color Hue h*ab Value (trial MC-24/99, 30 mg/kg feed): 76 | chroma C*a*b* values in the skin and in the shanks: substantially enhanced | color hue h*a*b* in the skin and in the shanks: not significantly changed | effectiveness in terms of concentration in the skin, and color intensity (chroma C*a*b*) in the skin and shanks: significantly more effective
